Measurements reported in WO2016071431A1, “A combination for cancer therapy” (Stichting Katholieke Universiteit, priority 2014, dated 2016).
“Also recorded” adds a separate entry of the source. Like-named read-outs stand apart in the source and are kept apart here. In the oligonucleotide strings, read from the 5' end, every base follows the letter of its sugar. An asterisk marks phosphorothioate; unmarked linkages are phosphodiester. Other units and linkages are bracketed, terminal groups are in braces. A string of capitals states the bases alone. [s2] = phosphorodithioate linkage; d = 2'-deoxy (DNA)

Assays:
[1] = tested on: B16-F10 melanoma; assay: Combination with CpG in B16-F10 melanoma, tumor growth and survival; assay type: in vivo, mouse; conditions: CpG combination study; P-3Fax-Neu5Ac 0.3mg intratumoral three times per week and/or CpG 100μg peritumoral day 14 and 21
[2] = tested on: 9464D neuroblastoma; assay: Intratumoral treatment of subcutaneous 9464D neuroblastoma, tumor growth; assay type: in vivo, mouse; conditions: 10mg/kg or 20m/kg intratumoral three times per week until day 50, C57BL/6 mice
[3] = tested on: Mouse bone marrow-derived dendritic cells; assay: TLR-mediated maturation of mouse bone marrow-derived dendritic cells (CD80); assay type: cell-based; conditions: three days with P-3Fax-Neu5Ac, then 24 hours LPS, CpG or polyI/C
[4] = tested on: Human monocyte-derived dendritic cells; assay: TLR-mediated maturation of human monocyte-derived dendritic cells (CD80); assay type: cell-based; conditions: six donors, four days with P-3Fax-Neu5Ac, then 24 hours polyI/C, R848 or LPS
[5] = tested on: melanoma cells; conditions: Büll et al, 2013; cited from earlier work
[6] = tested on: mammalian cells; conditions: Rillahan et al, 2012, cited from earlier work
[7] = tested on: tumor cells; conditions: Büll et al, 2013; cited from earlier work
[8] = tested on: B16-F10 melanoma; assay: Effect on B16-F10 tumor growth after depletion of effector immune cells; assay type: in vivo, mouse
[9] = tested on: CD8+ cells; assay: Tumor infiltration of immune cells after intratumoral injections (flow cytometry); assay type: in vivo, mouse; conditions: after 3 intratumoral injections, 0.3mg
[10] = tested on: sialic acid expression; assay: Sialic acid expression in tumor tissue and other organs after intratumoral injections (lectin flow cytometry); assay type: in vivo, mouse; conditions: after 3 intratumoral injections
[11] = tested on: B16-F10 melanoma; assay: Intratumoral treatment of subcutaneous B16-F10 melanoma, tumor growth; assay type: in vivo, mouse; conditions: stand-alone, 0.3mg (10mg/kg) or 1mg (30mg/kg) intratumoral, three times per week for four weeks, C57BL/6 mice
[12] = tested on: mouse melanoma cells; conditions: cited from earlier work

Q: What does the source list for `COC(=O)C1(OC(C)=O)OC(C(OC(C)=O)C(COC(C)=O)OC(C)=O)C(NC(C)=O)C(OC(C)=O)C1F` (stereo not shown) [P-3Fax-Neu5Ac]?
A: median survival time / survival time [1]: slightly prolonged the survival time; tumor growth [2]: hamper 9464D neuroblastoma growth; activation / maturation of dendritic cells (CD80 expression) [3]: enhances APC maturation with TLR ligands; also recorded: strongly enhances activation of dendritic cells; activation / maturation of dendritic cells (CD80 expression) [4]: enhances APC maturation with TLR ligands; also recorded: strongly enhances activation of dendritic cells; growth of melanoma cells treated with the inhibitor before injection into mice [5]: grow significantly slower; depletion of sialic acids from mammalian cells [6]: deplete sialic acids from mammalian cells; cellular cytotoxicity ([6]; mammalian cells): without causing cellular cytotoxicity; adhesion and migration of tumor cells [7]: can impair adhesion and migration of tumor cells; tumor growth suppression mediated by CD8+ cells ([8]; B16-F10 melanoma model, CD8+ depleted versus non-depleted mice): mediated by effector CD8+ immune cells; effect of sialic acid blockade on tumor growth upon CD4+ cell depletion ([8]; CD4+ cell depletion, 0.3mg intratumoral three times per week): unaffected; effect of sialic acid blockade on tumor growth upon CD8+ cell depletion ([8]; CD8+ cell depletion, 0.3mg intratumoral three times per week): CD8+ cell depletion abrogated the effect of sialic acid blockade on tumor growth; effect of sialic acid blockade on tumor growth upon K1.1+ cell depletion ([8]; K1.1+ cell depletion, 0.3mg intratumoral three times per week): unaffected; infiltration of immune cells in the tumor [9]: enhanced infiltration of immune cells, especially CD8+ cells in the tumor; sialic acid expression in tumor tissue ([10]; 0.3mg or 1mg, MALII, SNA-I or PNA lectin): block sialic acid expression in the tumor mass; also recorded: reduction of sialic acid expression in the isolated tumor tissue; sialic acid expression in other organs such as the spleen ([10]; fluorescent sialic acid binding lectins): not other organs such as the spleen; tumor growth [11]: hamper B 16-F 10 melanoma growth; also recorded: antagonizes tumor growth in a dose-dependent manner; tumor growth ([11]; listed as glycomimetic): delayed tumor growth modestly; expression of sialic acids in melanoma / cancer cells ([12]; Büll et al, 2013, listed as glycomimetic): potently blocks sialic acid synthesis and expression in cancer cells; duration of the blocking effect ([12]; Büll et al, 2013): almost four days; expression of sialic acids in melanoma / cancer cells ([12]; Büll et al, 2013): blocks the expression of sialic acids in mouse melanoma cells with high efficiency

Q: Which results are given for “CpG: CpG oligodeoxynucleotide immune adjuvant; more preferred: phosphodithioate backbone and sequence 5'-TCCATGACGTTCCTGATGCT-3' (DNA dT[s2]dC[s2]dC[s2]dA[s2]dT[s2]dG[s2]dA[s2]dC[s2]dG[s2]dT[s2]dT[s2]dC[s2]dC[s2]dT[s2]dG[s2]dA[s2]dT[s2]dG[s2]dC[s2]dT)”?
A: median survival time / survival time [1]: no effect on tumor growth and median survival time; tumor growth [1]: almost no effect on tumor growth
